Reference: US9198433B2, “Substituted benzene fungicides” (E I DU PONT DE NEMOURS AND COMPANY, priority 2007, dated 2015)
Where two headings read alike, the source gives them in different places. Marks after values point to notes of the source that are not given here.

Key:
Assay type in all cases: in vivo
Phytophthora infestans = conditions: tomato late blight
Plasmopara viticola = experiment: Test K: grape downy mildew, spray on grape seedlings after inoculation, disease rating
Source text: The test compounds were first dissolved in acetone in an amount equal to 3% of the final volume and then suspended at the desired concentration (in ppm) in acetone and purified water (50/50 mix) containing 250 ppm of the surfactant Trem® 014 (polyhydric alcohol esters). The resulting test suspensions were then used in Tests A-L. Spraying a 200 ppm test suspension to the point of run-off on the test plants was the equivalent of an application rate of 500 g/ha. Grape seedlings were inoculated with a spore suspension of Plasmopara viticola (the causal agent of grape downy mildew) and incubated in a saturated atmosphere at 20° C. for 24 h. After a short drying period, the test suspension was sprayed to the point of run-off on the grape seedlings and then moved to a growth chamber at 20° C. for 6 days, after which the test units were placed back into a saturated atmosphere at 20° C. for 24 h. Upon removal, disease ratings were made. […] A dash (-) indicates no test results. All results are for 200 ppm except where followed by an “*”, which indicates 40 ppm or “**”, which indicates 50 ppm.

[1] = tested on: Erysiphe graminis f. sp. tritici; experiment: Test A: wheat powdery mildew, preventive spray on wheat seedlings, disease rating
Outline: (§1)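 Compounds were dissolved in acetone (3% of final volume), then suspended in 50/50 acetone/water with 250 ppm polyhydric alcohol ester surfactant and sprayed to run-off on wheat seedlings. Unless marked otherwise, values are at 200 ppm (equivalent to 500 g/ha); some are at 40 or 50 ppm.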

[2] = tested on: Puccinia recondita f. sp. tritici; experiment: Test B: wheat leaf rust, preventive spray on wheat seedlings, disease rating
Outline: as §1

Botrytis cinerea = experiment: Test F: tomato Botrytis, preventive spray on tomato seedlings, disease rating
Outline: (§2)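 Tomato seedlings sprayed to run-off, as a preventive treatment, with compound suspended in acetone/water (50/50) containing 250 ppm Trem 014 surfactant; 200 ppm equals 500 g/ha. Disease then rated. Values are at 200 ppm unless marked * (40 ppm) or ** (50 ppm).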

Pythium aphanidermatum = experiment: Test L: bluegrass pythium blight, preventive spray on bluegrass seedlings, disease rating
Source text: The test compounds were first dissolved in acetone in an amount equal to 3% of the final volume and then suspended at the desired concentration (in ppm) in acetone and purified water (50/50 mix) containing 250 ppm of the surfactant Trem® 014 (polyhydric alcohol esters). The resulting test suspensions were then used in Tests A-L. Spraying a 200 ppm test suspension to the point of run-off on the test plants was the equivalent of an application rate of 500 g/ha. The test suspension was sprayed to the point of run-off on bluegrass seedlings. […] A dash (-) indicates no test results. All results are for 200 ppm except where followed by an “*”, which indicates 40 ppm or “**”, which indicates 50 ppm.

Rhizoctonia oryzae = experiment: Test I: turf brown patch, preventive spray on creeping bent grass seedlings, disease rating
Source text: The test compounds were first dissolved in acetone in an amount equal to 3% of the final volume and then suspended at the desired concentration (in ppm) in acetone and purified water (50/50 mix) containing 250 ppm of the surfactant Trem® 014 (polyhydric alcohol esters). The resulting test suspensions were then used in Tests A-L. Spraying a 200 ppm test suspension to the point of run-off on the test plants was the equivalent of an application rate of 500 g/ha. The test suspension was sprayed to the point of run-off on creeping bent grass seedlings. […] A dash (-) indicates no test results. All results are for 200 ppm except where followed by an “*”, which indicates 40 ppm or “**”, which indicates 50 ppm.

Fusarium graminearum = conditions: wheat head scab
Septoria nodorum = experiment: Test C: wheat glume blotch, preventive spray on wheat seedlings, disease rating
Outline: as §1

Septoria tritici = experiment: Test D: wheat leaf blotch, preventive spray on wheat seedlings, disease rating
Outline: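 Wheat seedlings sprayed to run-off with compound in acetone/water containing 250 ppm Trem 014 (200 ppm ≈ 500 g/ha; some results at 40 or 50 ppm), inoculated next day with Septoria tritici spores. Held 48 h saturated at 24 °C, then 19 days at 20 °C before disease rating.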

Alternaria solani = experiment: Test H: tomato early blight, preventive spray on tomato seedlings, disease rating
Outline: as §2

[3] = 200 ppm, 100 = 100% disease control, 0 = no control relative to controls
[4] = 40 ppm (*), 100 = 100% disease control, 0 = no control relative to controls

SMILES | Percentage Disease Control, Test J (Phytophthora infestans; 200 ppm) [%] | Percentage Disease Control, Test K (Plasmopara viticola; 200 ppm) [%] | Percentage Disease Control, Test A ([1]; 200 ppm) [%] | Percentage Disease Control, Test B ([2]; 200 ppm) [%] | Percentage Disease Control, Test F (Botrytis cinerea; 200 ppm) [%] | Percentage Disease Control, Test L (Pythium aphanidermatum; 200 ppm) [%] | Percentage Disease Control, Test I (Rhizoctonia oryzae; 200 ppm) [%] | Percentage Disease Control, Test E (Fusarium graminearum; 200 ppm) [%] | Percentage Disease Control, Test C (Septoria nodorum; 200 ppm) [%] | Percentage Disease Control, Test D (Septoria tritici; 40 ppm (*)) | Percentage Disease Control, Test H (Alternaria solani; 200 ppm) [%] | Percentage Disease Control, Test A ([1]; 40 ppm (*)) | Percentage Disease Control, Test B ([2]; 40 ppm (*)) | Percentage Disease Control, Test E (Fusarium graminearum; 40 ppm (*)) | Percentage Disease Control, Test C (Septoria nodorum; 40 ppm (*)) | further results
COC(=O)NCc1cc(C(C)=NOCC(C)[Si](C)(C)C)ccc1Cl (stereo not drawn) [Compound 2, methyl N-[[2-chloro-5-[1-[[2-(trimethylsilyl)propoxy]imino]ethyl]phenyl]-methyl]carbamate] | 0 | 70 | 100 | 100 | 0 | 0 | 0 | 100 | 99 | 91* % | – | – | – | – | – | –
COC(=O)NCc1cc(-c2ccn(CCCC#N)n2)ccc1Cl [Cmpd 32] | 0 | 34 | 41 | 80 | 0 | 0 | 0 | – | 0 | – | 0 | – | – | – | – | Percentage Disease Control, Test D (Septoria tritici; 200 ppm): 88%
COC(=O)NCc1cc(-c2cc[nH]n2)ccc1Cl [Cmpd 21] | 0 | 0 | 0 | 79 | 0 | 0 | 0 | 0 | 0 | – | 0 | – | – | – | – | –
COC(=O)NCc1cc(-c2ccn(Cc3cccc(C)n3)n2)ccc1Cl [Cmpd 20] | 0 | 0 | 99 | 100 | 0 | 0 | 0 | 72 | 96 | – | 0 | – | – | – | – | –
COC(=O)NCc1cc(-c2ccn(CCC=C(C)C)n2)ccc1Cl [Cmpd 30] | 0 | 74 | 83 | 98 | 0 | 0 | 0 | – | 73 | – | 0 | – | – | – | – | Percentage Disease Control, Test D (Septoria tritici; 200 ppm): 90%
C#CCCCn1ccc(-c2ccc(Cl)c(CNC(=O)OC)c2)n1 [Cmpd 24] | – | 83 | – | – | 0 | – | 0 | – | – | – | 0 | 96* % | 99* % | 96* % | 99* % | Percentage Disease Control, Test J (Phytophthora infestans; 40 ppm (*)): 0* %
COC(=O)NCc1cc(-c2ccn(C(C)[Si](C)(C)C)n2)ccc1Cl (stereo not drawn) [Cmpd 29] | – | – | – | – | – | – | – | – | – | – | – | – | – | – | – | Percentage Disease Control, Test J (Phytophthora infestans; 50 ppm (**)): 0** %; Percentage Disease Control, Test K (Plasmopara viticola; 50 ppm (**)): 27** %; Percentage Disease Control, Test H (Alternaria solani; 50 ppm (**)): 67** %; Percentage Disease Control, Test A ([1]; 50 ppm (**)): 78** %; Percentage Disease Control, Test B ([2]; 50 ppm (**)): 98** %; Percentage Disease Control, Test F (Botrytis cinerea; 50 ppm (**)): 0** %; Percentage Disease Control, Test L (Pythium aphanidermatum; 50 ppm (**)): 0** %; Percentage Disease Control, Test I (Rhizoctonia oryzae; 50 ppm (**)): 0** %; Percentage Disease Control, Test C (Septoria nodorum; 50 ppm (**)): 82** %; Percentage Disease Control, Test D (Septoria tritici; 50 ppm (**)): 96** %
COC(=O)NCc1cc(-c2ccn(CCC#N)n2)ccc1Cl [Cmpd 31] | – | – | – | – | – | – | – | – | – | 69* % | – | 0* % | 0* % | – | 0* % | Percentage Disease Control, Test J (Phytophthora infestans; 40 ppm (*)): 0* %; Percentage Disease Control, Test K (Plasmopara viticola; 40 ppm (*)): 20* %; Percentage Disease Control, Test H (Alternaria solani; 40 ppm (*)): 0* %; Percentage Disease Control, Test F (Botrytis cinerea; 40 ppm (*)): 0* %; Percentage Disease Control, Test L (Pythium aphanidermatum; 40 ppm (*)): 0* %; Percentage Disease Control, Test I (Rhizoctonia oryzae; 40 ppm (*)): 0* %
COC(=O)NCc1cc(-c2cnn(CCC[Si](C)(C)C)c2)ccc1Cl [Cmpd 126] | – | – | – | – | – | – | – | – | – | – | – | – | – | – | – | Percentage Disease Control, Test H (Alternaria solani; [3]): 0%; Percentage Disease Control, Test A [1, 3]: 95%; Percentage Disease Control, Test B [2, 4]: 98* %; Percentage Disease Control, Test F (Botrytis cinerea; [3]): 0%; Percentage Disease Control, Test E (Fusarium graminearum; [3]): 0%; Percentage Disease Control, Test C (Septoria nodorum; [3]): 99%; Percentage Disease Control, Test D (Septoria tritici; [4]): 97* %
COC(=O)NCc1cc(-c2ccn(-c3ccc(C)cn3)n2)ccc1Cl [Cmpd 48] | – | – | – | – | – | – | – | – | – | 99* % | – | 65* % | 100* % | 94* % | 99* % | Percentage Disease Control, Test H (Alternaria solani; 40 ppm (*)): 99* %; Percentage Disease Control, Test F (Botrytis cinerea; 40 ppm (*)): 0* %
C=C[Si](C)(C)CON=C(C)c1ccc(Cl)c(CNC(=O)OC)c1 [Compound 4] | 0 | 74 | 98 | 99 | 37 | 0 | 0 | 97 | 99 | 59* % | – | – | – | – | – | –
COC(=O)NCc1cc(-c2ccn(CCCc3ccccc3)n2)ccc1Cl [Cmpd 42] | – | – | – | – | 0 | – | – | – | – | 100* % | 0 | 98* % | 100* % | 100* % | 100* % | –
C=C(CON=C(C)c1ccc(Cl)c(CNC(=O)OC)c1)C[Si](C)(C)C [Compound 3] | 0 | 26 | 98 | 100 | 0 | 0 | 0 | 87 | 99 | 16* % | – | – | – | – | – | –
COC(=O)NCc1cc(-c2cc(C)n(CCC[Si](C)(C)C)n2)ccc1Cl [Cmpd 40] | – | – | – | – | – | – | – | – | – | 100* % | – | 99* % | 100* % | 13* % | 99* % | Percentage Disease Control, Test H (Alternaria solani; 40 ppm (*)): 50* %; Percentage Disease Control, Test F (Botrytis cinerea; 40 ppm (*)): 0* %
COC(=O)NOc1cc(-c2cccc(Cl)c2)ccc1Cl [Cmpd 19] | – | – | – | – | – | – | – | – | – | 98* % | – | 99* % | 99* % | 99* % | 97* % | Percentage Disease Control, Test H (Alternaria solani; 40 ppm (*)): 63* %; Percentage Disease Control, Test F (Botrytis cinerea; 40 ppm (*)): 0* %
COC(=O)NCc1cc(-c2nn(CCC[Si](C)(C)C)cc2Cl)ccc1Cl [Cmpd 47] | – | – | – | – | 0 | – | – | 94 | – | 99* % | 66 | 98* % | 100* % | – | 100* % | –
